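Cells were grown in 96-well plates and exposed to each compound for 48 hours at five concentrations; endpoints were interpolated linearly between bracketing concentrations, or set to the highest concentration if not reached. TGI marks complete inhibition of growth.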
Key:
Experiment in all cases: inhibition of tumour cell growth, NCI panel, 48 h
DU-145 prostate = test system: DU-145 prostate
SF-539 CNS = test system: SF-539 CNS
NCI-H522 lung = test system: NCI-H522 lung
RPMI-8226 leukemia = test system: RPMI-8226 leukemia
TK-10 renal = test system: TK-10 renal
BT-549 breast = test system: BT-549 breast
ACHN renal = test system: ACHN renal
CCRF-CEM leukemia = test system: CCRF-CEM leukemia
RXF 393 renal = test system: RXF 393 renal
UACC-257 melanoma = test system: UACC-257 melanoma

Structure (SMILES) | TGI (DU-145 prostate) [µM] | TGI (SF-539 CNS) [µM] | TGI (NCI-H522 lung) [µM] | TGI (RPMI-8226 leukemia) [µM] | TGI (TK-10 renal) [µM] | TGI (BT-549 breast) [µM] | TGI (ACHN renal) [µM] | TGI (CCRF-CEM leukemia) [µM] | TGI (RXF 393 renal) [µM] | TGI (UACC-257 melanoma) [µM]
CN(C)CC(O)c1ccc(Cl)c2ccccc12 (stereo not given) | > 100 | > 100 | > 100 | 11 | > 94 | > 100 | > 100 | 53.8 | > 64.9 | 38.2
CCN(CCCOc1ccccc1)CCN(CC)CCCOc1ccccc1 | 23.9 | 24.7 | 28.9 | 10.4 | 27.1 | 29.1 | 31.5 | > 100 | 38.5 | 31.5
Cc1ccc(Nc2nc3[nH]ccc3c(=O)[nH]2)cc1 | > 100 | > 100 | > 100 | > 100 | > 100 | > 100 | > 100 | > 100 | > 100 | > 100
CC1=NNC(=O)C1C1C(=O)NN=C(c2c[nH]c3ccccc23)C1Br (stereo not given) | > 100 | > 100 | 92.4 | > 100 | > 100 | > 100 | > 100 | 65.5 | > 100 | > 100
O=C(Nc1ccc(N2C(=O)CSC2c2ccccc2O)cc1)c1ccc(N2C(=O)CSC2c2ccccc2O)cc1 (stereo not given) | > 100 | > 100 | > 100 | > 100 | > 100 | > 100 | > 100 | > 100 | > 100 | > 100
COc1cc2c(c(O)c1O)C(=O)C1CCC(=O)N1C2c1cccc2ccccc12 (stereo not given) | > 50 | > 50 | > 50 | > 50 |  | > 50 | > 50 | > 50 | > 50 | > 50
Oc1cc(Cc2ccccc2)c(Cc2ccccc2)cc1O | > 10 | > 10 | > 10 | > 10 |  | > 10 | > 10 | > 10 | > 10 | > 10
OC1[C@@H]2[C@@H](O)CCCN2C[C@@H](O)[C@H]1O (stereo not given in full) | > 100 | > 100 | > 100 | > 100 | > 100 | > 100 | > 100 | > 100 | > 100 | > 100
CC(C)/C(Cl)=N/OC(=O)Nc1ccc(Br)cc1 | 27.4 | 29.1 | 2.97 | 5.24 | 26.2 | 9.19 | 3.77 | 2.93 | 23.9 | 28.7
CC(C)(C)c1ccc(OCCOc2ccc(C(C)(C)C)cc2N)c(N)c1 | > 100 | > 100 | > 100 | > 100 | > 100 | > 100 | > 100 | > 100 | > 100 | > 100
CCO/C(=N/S(=O)(=O)C(F)(F)F)N(C(C)C)C(C)C | > 100 | > 100 | > 100 | > 100 | > 100 | > 100 | > 100 | > 100 | > 100 | > 100
COC1CC(N)(c2ccccc2)C(O)C(C)O1 (stereo not given) | > 100 | > 100 | > 100 | > 100 |  | > 100 | > 100 | > 100 | > 100 | > 100
O=c1[nH]cc(NCCCl)c(=O)[nH]1 | > 100 | > 100 | > 100 | > 100 | > 100 | > 100 | > 100 | > 100 | > 100 | > 100
CC(N=NNc1ccc(-c2nc3ccccc3[nH]2)cc1)C(=O)O (stereo not given) | > 100 | > 100 | 75.7 | > 100 | > 100 | 57.6 | > 100 | > 100 | > 100 | > 100
COc1cc(C2c3c(ccc4ccccc34)C(=O)C3CCC(=O)N32)cc(OC)c1OC (stereo not given) | > 50 | > 50 | > 50 | > 50 |  | > 50 | > 50 | > 50 | > 50 | > 50
CC(C)(C)c1ccccc1N1C(=O)c2ccc3c4c(ccc(c24)C1=O)N(c1ccccc1C(C)(C)C)C3=O | > 100 | > 100 | > 100 | > 100 |  | > 100 | > 100 | > 100 | > 100 | > 100

From PubChem BioAssay (NCI)
